“Also recorded” adds a separate entry of the source. Read-outs that look alike come from different tables or passages of the source. Where a SMILES comes first, the peptide text is derived from it. Bridges are numbered along the chain shown (N, C = ends). [ ]: non-standard residue; d: D form. d2Nal = N[C@H](Cc1ccc2ccccc2c1)C(=O)O; Nle = CCCC[C@H](N)C(=O)O; Ahx = NCCCCCC(=O)O; βAla = NCCC(=O)O
Key:
[1] = Experimental lipophilicity (P, log P); type: physicochemical
Description: We also studied experimentally the lipophilicity of the compounds 1–4. The obtained logP values vary only moderately (in the range −2.30 to −2.92, Table S2) and cannot account for the large differences in the antinociceptive activity. It seems then that the lipophilicity is not a factor responsible for the in vivo activity differences.

[2] = target: T1, delta opioid receptor (DOR) (Rattus norvegicus, UniProt P33533); assay: Competitive radioligand binding, [3H][Ile5,6]DELT II, rat brain homogenate; conditions: three determinations in duplicate, read-out: Affinity DOR IC50 ± SD
T1 construct: The determinations for opioid receptors were performed in rat brain homogenates; from tissue; host or cells: rat brain homogenate (membrane fraction)
T1 sequence (P33533 whole entry): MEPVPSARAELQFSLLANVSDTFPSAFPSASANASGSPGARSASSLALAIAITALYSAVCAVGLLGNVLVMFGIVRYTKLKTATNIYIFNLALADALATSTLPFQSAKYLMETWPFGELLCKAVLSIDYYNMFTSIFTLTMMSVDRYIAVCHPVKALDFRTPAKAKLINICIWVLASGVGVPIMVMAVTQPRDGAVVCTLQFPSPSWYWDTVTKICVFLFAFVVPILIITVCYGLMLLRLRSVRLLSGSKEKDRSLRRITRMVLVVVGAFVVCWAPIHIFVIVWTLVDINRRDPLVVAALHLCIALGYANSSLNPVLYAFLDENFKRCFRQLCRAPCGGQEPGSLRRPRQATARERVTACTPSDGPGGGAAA
Protocol: (§1) The determinations for opioid receptors were performed in rat brain homogenates by competitive displacement using selective radioligands, namely [^3H]DAMGO (a radioligand specific for MOR) and [^3H][Ile^5,6]DELT II (a radioligand specific for DOR). The measurement for melanocortin receptor MC4 was performed with the use of HEK293 MC4R cells and [^125I]-NDP-α-MSH radioligand.
(§2) The binding affinity of peptidomimetics 1–9 and reference compoundsTyr-D-Ala-Gly-Phe-NH2 for MOR and DOR was determined in competitive radioligand binding assays according to the method previously described. The specific radioligands were [^3H]DAMGO (DAMGO (a specific MOR ligand) and [^3H][Ile^5,6]DELT II]) (a specific DOR ligand). Membrane fractions of rat brain homogenate were incubated at 25 °C for 60 min in the presence of radioligands (0.5 nM) specific for each receptor and the increasing concentrations of the tested compounds. For measuring non-specific binding, 10 μM naloxone was used as the competitor for opioid receptors. The reactions were carried out in assay buffer containing Tris-HCl (pH 7.4) with an addition of bovine serum albumin (BSA) and protease inhibitors (bacitracin, bestatin, captopril). After the incubation, the binding reactions were terminated by rapid filtration with M-24 Cell Harvester (Brandel/USA) through GF/B Whatman glass fiber strips (pre-soaked with 0.5% PEI in order to minimize non-specific binding). Radioactivity retained on the filters was measured in MicroBeta LS, Trilux scintillation counter (PerkinElmer, USA). The experiments were repeated at least three times in duplicate. The IC50 value for each compound was determined using GraphPad Prism.

mu opioid receptor (MOR) = target: T2, mu opioid receptor (MOR) (Rattus norvegicus, UniProt P33535); assay: Competitive radioligand binding, [3H]DAMGO, rat brain homogenate; conditions: for IC50: [3H]DAMGO, rat brain homogenate, three determinations in duplicate, read-out: Affinity MOR IC50 ± SD; for Selectivity MOR/DOR: calculated as ratio of IC50 values
T2 construct: The determinations for opioid receptors were performed in rat brain homogenates; from tissue; host or cells: rat brain homogenate (membrane fraction)
T2 sequence (P33535 whole entry): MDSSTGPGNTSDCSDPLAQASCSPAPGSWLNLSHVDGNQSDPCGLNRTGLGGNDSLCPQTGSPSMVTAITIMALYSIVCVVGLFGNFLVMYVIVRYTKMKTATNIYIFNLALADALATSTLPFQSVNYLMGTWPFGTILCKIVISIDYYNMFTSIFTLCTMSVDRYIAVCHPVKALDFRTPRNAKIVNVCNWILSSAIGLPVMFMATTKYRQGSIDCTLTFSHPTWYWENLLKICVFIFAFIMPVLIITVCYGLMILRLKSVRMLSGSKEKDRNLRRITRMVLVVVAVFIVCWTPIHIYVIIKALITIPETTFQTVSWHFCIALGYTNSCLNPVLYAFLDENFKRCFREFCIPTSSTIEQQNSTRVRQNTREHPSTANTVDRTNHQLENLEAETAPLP
Protocol: as §1, §2

[3] = target: melanocortin-4 receptor (MC4R) (Homo sapiens, UniProt P32245); assay: Radioligand competitive binding, [125I]-NDP-α-MSH, HEK293 MC4R cells; conditions: for IC50: [125I]-NDP-α-MSH, HEK293 MC4R cells, average of two assays in duplicates, read-out: Affinity MC4R IC50 ± SD; for Selectivity MC4R/DOR: calculated as ratio of IC50 values
melanocortin-4 receptor (MC4R), sequence (P32245 whole entry): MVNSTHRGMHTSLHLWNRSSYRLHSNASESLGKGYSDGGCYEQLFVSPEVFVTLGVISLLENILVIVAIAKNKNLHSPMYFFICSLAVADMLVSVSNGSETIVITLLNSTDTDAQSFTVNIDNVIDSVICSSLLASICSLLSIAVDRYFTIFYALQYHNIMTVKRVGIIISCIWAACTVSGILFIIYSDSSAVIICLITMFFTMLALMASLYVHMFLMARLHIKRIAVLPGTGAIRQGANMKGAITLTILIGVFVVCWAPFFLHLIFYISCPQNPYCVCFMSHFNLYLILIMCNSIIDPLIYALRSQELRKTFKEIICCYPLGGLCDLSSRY
Protocol: as §1
HEK293 MC4R were cultured in Earle’s Minimum Essential Medium (EMEM) supplemented with 10% heat inactivated fetal bovine serum (FBS). Cultures were grown under the humidified atmosphere of 5% CO2 in the air at 37 °C, up to 80% settlement of the bottle surface.
HEK293 MC4R cells were seeded around 10^5 cell/well in a 24-well plates two days before the experiment. Just before experiment, cells were washed twice with 0.5 mL of binding buffer (EMEM supplemented with 25 mM HEPES buffer, 0.2% bovine serum albumin, 1 mM 1,10-phenanthroline, 0.5 mg/L leupeptin and 200 mg/L bacitracin). […] The competition between ligands was ended by gentle withdrawal of medium solution, followed by cell washing with 2 × 0.5 mL of cold binding buffer, while the attached cells were lysed using 2 × 0.5 mL of 1 M NaOH. The radioactivity of collected solutions were measured on WIZARD^2 2480 Automatic Gamma Counter (PerkinElmer, Boston, MA, USA) in measurements with decay correlation protocol. All binding parameters were determined using GraphPad Prism Software (GraphPad Software Inc., San Diego, CA, USA). The competition assay determination was based on the normalized dose response in function of logarithm of inhibitor concentration (with variable slope) equation. All the EC50 values were calculated as an average of two separate competition assays performed in duplicates.

[4] = tested on: mice subjected to CCI (neuropathic pain); assay: Cold plate test in CCI-exposed mice (neuropathic pain, hyperalgesia); type: in vivo; conditions: 7–14 days after CCI, i.t. administration, 95% confidence limits
Protocol: (§3) The antinociceptive properties of the peptidomimetics 1–9 were assessed in two types of pain models. The first one included naive mice (acute pain), and the second one included mice exposed to chronic constriction injury (CCI, neuropathic pain model). In the latter of the models, two types of stimuli (mechanical pressure and low temperature) were considered. […] In naive mice, the tail-flick test was used to evaluate the analgesic effect (acute pain model). In CCI-exposed mice, hypersensitivity to mechanical and thermal stimuli was measured by von Frey and cold-plate tests, respectively.
(§4) The surgical procedure was performed according to Bennett and Xie. Under isoflurane anesthesia, an incision was made below the mouse’s right hipbone, and the sciatic nerve was exposed. Three ligatures with 4/0 silk thread were made around the nerve distal to the sciatic notch with 1 mm spacing, until a brief twitch in the respective hind limb was observed. After 7 days of recovery, mice were tested to assess the development of neuropathic pain behavior. […] Main experiments were conducted on days 7–14 after CCI surgical procedure.
Sensitivity to noxious thermal stimuli was assessed with usage of Cold/Hot Plate Analgesia Meter, (Ugo Basile, Comerio, Italy). The temperature of the plate was kept at 2 °C, and the cut-off latency was 30 s. The mice were placed on the cold plate, and the time until the hind paw was lifted was recorded, which was considered as a reaction to noxious cold stimulus.
(§5) The behavioral data are presented as the percentage of the maximal possible antinociceptive effect (% MPE ± SEM), which was calculated according to the following equation: % MPE = [(TL − BL)/(CUT-OFF − BL)] × 100%, where BL is the baseline latency, and TL is the latency obtained after drug injection. The results of the experiments were statistically evaluated using one-way analysis of variance (ANOVA). The differences between the treatment groups throughout the study were further analyzed with Bonferroni post hoc tests. The Litchefield and Wilcoxon method was used to calculate the ED50 value (a dose necessary to produce a 50% response) with 95% confidence limits on quantal data.

[5] = tested on: mice subjected to CCI (neuropathic pain); assay: Von Frey test in CCI-exposed mice (neuropathic pain, allodynia); type: in vivo; conditions: for ED50 (CL) Mice Subjected to CCI (Neuropathic Pain) Von Frey (Allodynia): 7–14 days after CCI, i.t. administration, 95% confidence limits
Protocol: as §3, §4
Mechanical sensitivity to non-noxious stimuli was measured by applying a set of calibrated nylon monofilaments in increasing value (0.6–6 g; Stoelting, Wood Dale, IL, USA) on a tested hind paw plantar surface, until a behavioral response was observed. Response considered as pain behavior included rapid paw withdrawal, shaking, and licking. In the von Frey test, results are expressed as pressure (g) applied with a calibrated plastic filament to the midplantar surface of the mouse’s injured hind paw (cut-off: 6 g), which elicited a foot withdrawal response.
as §5

naive mice (acute pain) = assay: Tail-flick test in naive mice (acute pain model); type: in vivo; conditions: for ED50 (CL) Naive Mice (Acute Pain) Tail-Flick: i.t. administration, 95% confidence limits; for analgesic effect in naive mice (acute pain), in words / ED50 Naive Mice (Acute Pain) Tail-Flick, class symbol: i.t.
Protocol: as §3
The tail-flick test was performed with use of Tail-Flick Analgesic Meter (Ugo Basile, Comerio, Italy) to evaluate the pain threshold to a thermal stimulus. During the procedure, an animal was placed on the apparatus surface and gently held by the experimenter. A beam of light was focused on a dorsal tail surface, approximately at 1 cm from the tail tip. When the animal flicked its tail, the timer stopped, and the recorded time (latency) was measured. The cut-off time to protect tissue damage was 9 s.
as §5

Row | Compound | logP ([1]; read-out: Lipophilicity Log P) | logP ([1]; read-out: Lipophilicity P) | IC50 [2] | IC50 (mu opioid receptor (MOR)) | Selectivity MOR/DOR (mu opioid receptor (MOR)) | IC50 [3] | Selectivity MC4R/DOR [3] | ED50 (CL) Mice Subjected to CCI (Neuropathic Pain) Cold Plate (Hyperalgesia) [4] | ED50 (CL) Mice Subjected to CCI (Neuropathic Pain) Von Frey (Allodynia) [5] | ED50 (CL) Naive Mice (Acute Pain) Tail-Flick (naive mice (acute pain)) | analgesic effect in naive mice (acute pain), in words (naive mice (acute pain)) | analgesic effect in CCI-exposed mice, in words ([5]; CCI mice, von Frey and cold plate tests, i.t.) | ED50 Naive Mice (Acute Pain) Tail-Flick, class symbol (naive mice (acute pain))
1 | CCCC[C@H](NC(=O)[C@@H](C)NC(=O)[C@H](Cc1ccccc1)NC(=O)CNC(=O)[C@@H](C)NC(=O)[C@@H](N)Cc1ccc(O)cc1)C(=O)N[C@H]1CC(=O)NCCCC[C@@H](C(N)=O)NC(=O)[C@H](Cc2c[nH]c3ccccc23)NC(=O)[C@H](CCCNC(=N)N)NC(=O)[C@@H](Cc2ccc3ccccc3c2)NC(=O)[C@H](Cc2c[nH]cn2)NC1=O [Compound 1, ENK-D-Ala-SHU] (H-Y[dA]GF[dA][Nle]DH[d2Nal]RWK-NH2; lactam 7-12) | -2.3 ± 0.02 | -2.3 | 14.5 ± 1.91 nM | 69.6 ± 18.7 nM | 0.2 | 0.07 ± 0.01 nM | 207 |  |  |  |  |  | 
2 | CCCC[C@H](NC(=O)CCNC(=O)[C@H](Cc1ccccc1)NC(=O)CNC(=O)[C@@H](C)NC(=O)[C@@H](N)Cc1ccc(O)cc1)C(=O)N[C@H]1CC(=O)NCCCC[C@@H](C(N)=O)NC(=O)[C@H](Cc2c[nH]c3ccccc23)NC(=O)[C@H](CCCNC(=N)N)NC(=O)[C@@H](Cc2ccc3ccccc3c2)NC(=O)[C@H](Cc2c[nH]cn2)NC1=O [Compound 2, ENK-β-Ala-SHU] (H-Y[dA]GF[βAla][Nle]DH[d2Nal]RWK-NH2; lactam 7-12) | -2.33 ± 0.02 | -2.33 | 22.8 ± 7.49 nM | 104 ± 29.1 nM | 0.2 | 0.12 ± 0.01 nM | 190 | 142 (31–654) nmol | 0.04 (0.03–0.68) nmol | 58.8 (27–128) nmol |  |  | 
3 | CCCC[C@H](NC(=O)CCCCCNC(=O)[C@H](Cc1ccccc1)NC(=O)CNC(=O)[C@@H](C)NC(=O)[C@@H](N)Cc1ccc(O)cc1)C(=O)N[C@H]1CC(=O)NCCCC[C@@H](C(N)=O)NC(=O)[C@H](Cc2c[nH]c3ccccc23)NC(=O)[C@H](CCCNC(=N)N)NC(=O)[C@@H](Cc2ccc3ccccc3c2)NC(=O)[C@H](Cc2c[nH]cn2)NC1=O [Compound 3, ENK-Ahx-SHU] (H-Y[dA]GF[Ahx][Nle]DH[d2Nal]RWK-NH2; lactam 7-12) | -2.43 ± 0.01 | -2.43 | 45.4 ± 32.3 nM | 64 ± 34.6 nM | 0.7 | 1.83 ± 0.81 nM | 25 |  | 0.0002 (0.00005–0.001) nmol |  |  |  | 
4 | CCCC[C@H](NC(=O)CCCCCNC(=O)CCCCCNC(=O)[C@H](Cc1ccccc1)NC(=O)CNC(=O)[C@@H](C)NC(=O)[C@@H](N)Cc1ccc(O)cc1)C(=O)N[C@H]1CC(=O)NCCCC[C@@H](C(N)=O)NC(=O)[C@H](Cc2c[nH]c3ccccc23)NC(=O)[C@H](CCCNC(=N)N)NC(=O)[C@@H](Cc2ccc3ccccc3c2)NC(=O)[C@H](Cc2c[nH]cn2)NC1=O [Compound 4, ENK-(Ahx)2-SHU] (H-Y[dA]GF[Ahx][Ahx][Nle]DH[d2Nal]RWK-NH2; lactam 8-13) | -2.92 ± 0.02 | -2.92 | 22.3 ± 12.7 nM | 5.47 ± 1.38 nM | 4.1 | 0.5 ± 0.16 nM | 45 | 0.1 (0.004–3.4) nmol | 0.01 (0.00002–7.8) nmol |  |  |  | 
5 | ENK-4AMB-SHU [Compound 5] |  |  |  |  |  |  |  | 0.16 (0.1–0.2) nmol | 0.02 (0.005–0.5) nmol |  | lack of analgesic effect |  | 
6 | ENK-4APhAc-SHU [Compound 6] |  |  |  |  |  |  |  | 0.02 (0.0005–1.2) nmol | 0.02 (0.0002–1.03) nmol | 42 (21–85) nmol | some analgesic activity |  | 
7 | ENK-(Pro-Gly)2-SHU [Compound 8] |  |  |  |  |  |  |  |  |  | 5 (0.4–60.3) nmol |  | any analgesic effect was not observed; also recorded: very little if any activity | 
8 | ENK-Pro-Gly-SHU [Compound 7] |  |  |  |  |  |  |  | 0.16 (0.07–0.34) nmol | 0.4 (0.3–0.6) nmol |  | impossible to calculate ED50 due to weak analgesic effect and poor dose dependency |  | # (weak analgesic effects, poor dose dependency, ED50 cannot be calculated)
9 | [Dmt^1]ENK-Ahx-SHU [Compound 9] |  |  |  |  |  |  |  | 0.009 (0.005–0.01) nmol | 0.003 (0.000003–3.45) nmol |  | impossible to calculate ED50 due to weak analgesic effect and poor dose dependency |  | # (weak analgesic effects, poor dose dependency, ED50 cannot be calculated)

Reference: publication PMC8775902, “Bifunctional Opioid/Melanocortin Peptidomimetics for Use in Neuropathic Pain: Variation in the Type and Length of the Linker Connecting the Two Pharmacophores” (International Journal of Molecular Sciences, 2022)
